Experimental data as given in patent US4761414A, “Substituted 1H-pyrimido[1,2-a-]-pyrido[3,4-e]pyrazine 6 oxides” (G. D. Searle & Co., priority 1986, dated 1988).
Values after ≈ are worked out from the molar mass of the structure shown. Like-named read-outs stand apart in the source and are kept apart here.

Columns and labels:
[1] = tested on: Clostridium perfringens NCTC 523; assay: microbe, parasite or virus in culture; type: cell-based; conditions: Clostridium perfringens, NCTC523, Clostridium perfringens NCTC 523; procedures of Example 40
B. fragilis NCTC 9343 = assay: MIC/MBC against Bacteroides fragilis strain B; type: cell-based; conditions: for MBC: NCTC9343, 99.9% reduction in viable count; for MIC: NCTC9343, 48 h, 48 hours, 37° C., anaerobic
Description: (§1) The screening panel utilized in this Example consisted of 5 strains of Bacteroides fragilis. All assays were carried out in 96-well microtitre plates. If an isolate was obtained from either a culture collection or clinical source, the isolate was immediately inoculated into Wilkens-Chalgren broth (Oxoid) and incubated at 37° C. in an anaerobic chamber in an atmosphere of 85% nitrogen, 10% carbon dioxide, and 5% hydrogen for 48 hours. At the end of this time, the viable count was about 10^12 organisms/ml broth. A 1 ml aliquot of each culture was placed in an ampoule and quick frozen in acetone-dry ice mixture and stored in liquid nitrogen. When an inoculum was utilized in an assay, one of the ampoules was thawed and diluted with fresh broth to yield a suspension having a count of 5×10^5 organisms/ml. A 100 μl aliquot of this suspension was inoculated into each well of the microtitre plate. A 2 mg sample of the test compound was dissolved in 0.2 ml of a suitable solvent such as dimethylsulfoxide, polyethylene glycol 200 or methanol. […] After addition of the test solution the final inoculum level was 10^5 cells/ml. The plates were incubated for 48 hours at 37° C. in the anaerobic chamber. The Minimum Inhibitory Concentration (MIC) was read visually. The MIC is defined as the lowest concentration at which there is no detectable growth. The Minimum Bactericidal Concentration (MBC) was determined by taking 50 μl aliquot from each well and placing it in fresh medium. […] The strains of Bacteroides fragilis utilized in the above procedure are identified by letter in accordance with the following legend: |B B. fragilis NCTC 9343

B. fragilis WS-1 = assay: MIC/MBC against Bacteroides fragilis strain E; type: cell-based; conditions: for MBC: WS1, 99.9% reduction in viable count; for MIC: WS1, 48 h, 48 hours, 37° C., anaerobic
Description: as §1, with “|E” for “|B”, “WS-1*” for “NCTC 9343”

B. fragilis NCTC 9344 = assay: MIC/MBC against Bacteroides fragilis strain C; type: cell-based; conditions: for MBC: NCTC9344, 99.9% reduction in viable count; for MIC: NCTC9344, 48 h, 48 hours, 37° C., anaerobic
Description: as §1, with “|C” for “|B”, “9344” for “9343”

B. fragilis 23745 = conditions: Bacteroides fragilis, 23745, in Mus musculus, po, 48 h, log CFU/ml liver homogenate, test compound
[2] = read-out: DOSE GIVING 1 LOG REDUCTION (molar), p.o., after infection and twice daily for 2 days
[3] = read-out: DOSE GIVING 1 LOG REDUCTION, p.o., after infection and twice daily for 2 days

Structure (SMILES) | MIC [1] | MBC (B. fragilis NCTC 9343) | MIC (B. fragilis NCTC 9343) | MBC (B. fragilis WS-1) | MIC (B. fragilis WS-1) | MBC (B. fragilis NCTC 9344) | MIC (B. fragilis NCTC 9344) | ED (1 log reduction) (B. fragilis 23745; [2]) | ED (1 log reduction) (B. fragilis 23745; [3])
Cc1ccc(C2=[N+]([O-])c3cnccc3N3CC(C)(C)CN=C23)cc1 [Example 19, 2,3-Dihydro-2,2-dimethyl-5-(4-methylphenyl)-1H-pyrimido[1,2-a]pyrido[3,4-e]pyrazine 6-oxide] | 1.5 µg/mL (≈ 4.68 µM) | 1.5 µg/mL (≈ 4.68 µM) | < 0.8 µg/mL | 1.5 µg/mL (≈ 4.68 µM) | 1.5 µg/mL (≈ 4.68 µM) | < 0.8 µg/mL | < 0.8 µg/mL | 4.6 µmol/kg | 1.5 mg/kg
CC1(C)CN=C2C(c3ccc(Cl)cc3)=[N+]([O-])c3cnccc3N2C1 [Example 17, 2,3-Dihydro-5-(4-chlorophenyl)-2,2-dimethyl-1H-pyrimido[1,2-a]pyrido[3,4-e]pyrazine 6-oxide] | < 0.8 µg/mL | 1.5 µg/mL (≈ 4.4 µM) | 1.5 µg/mL (≈ 4.4 µM) | < 0.8 µg/mL | < 0.8 µg/mL | < 0.8 µg/mL | < 0.8 µg/mL | 9.3 µmol/kg | 3.2 mg/kg
CC1CN=C2C(c3ccccc3)=[N+]([O-])c3cccnc3N2C1 (stereo not drawn) [Example 32, 2,3-Dihydro-2-methyl-5-phenyl-1H-pyrimido[1,2-a]pyrido[3,2-e]pyrazine 6-oxide] | < 0.8 µg/mL | 1.5 µg/mL (≈ 5.13 µM) | 1.5 µg/mL (≈ 5.13 µM) | < 0.8 µg/mL | < 0.8 µg/mL | < 0.8 µg/mL | < 0.8 µg/mL | 3.3 µmol/kg | 0.95 mg/kg
CCC1(C)CN=C2C(c3ccccc3)=[N+]([O-])c3cnccc3N2C1 (stereo not drawn) [Example 23, 2,3-Dihydro-2-ethyl-2-methyl-5-phenyl-1H-pyrimido[1,2-a]pyrido[3,4-e]pyrazine 6-oxide] | 1.5 µg/mL (≈ 4.68 µM) | < 0.8 µg/mL | < 0.8 µg/mL | 3.1 µg/mL (≈ 9.68 µM) | 1.5 µg/mL (≈ 4.68 µM) | < 0.8 µg/mL | < 0.8 µg/mL | 6 µmol/kg | 1.9 mg/kg
CC1(C)CN=C2C(c3ccc(Cl)cc3)=[N+]([O-])c3cccnc3N2C1 [Example 18, 2,3-Dihydro-5-(4-chlorophenyl)-2,2-dimethyl-1H-pyrimido[1,2-a]pyrido[3,2-e]pyrazine 6-oxide] | < 0.8 µg/mL | < 0.8 µg/mL | < 0.8 µg/mL | < 0.8 µg/mL | < 0.8 µg/mL | 1.5 µg/mL (≈ 4.4 µM) | 1.5 µg/mL (≈ 4.4 µM) | 53.4 µmol/kg | 17.4 mg/kg
CC1(C)CN=C2C(c3ccccc3)=[N+]([O-])c3ccncc3N2C1 [Example 14, 2,3-Dihydro-2,2-dimethyl-5-phenyl-1H-pyrimido[1,2-a]pyrido[4,3-e]pyrazine 6-oxide] | 25 µg/mL (≈ 81.6 µM) | 6.2 µg/mL (≈ 20.2 µM) | 3.1 µg/mL (≈ 10.1 µM) | 3.1 µg/mL (≈ 10.1 µM) | 3.1 µg/mL (≈ 10.1 µM) | 6.2 µg/mL (≈ 20.2 µM) | 6.2 µg/mL (≈ 20.2 µM) | – | –
CC1(C)CN=C2C(c3ccccc3)=[N+]([O-])c3cnccc3N2C1 [Example 15, 2,3-Dihydro-2,2-dimethyl-5-phenyl-1H-pyrimido[1,2-a]pyrido[3,4-e]pyrazine 6-oxide] | 1.5 µg/mL (≈ 4.9 µM) | < 0.8 µg/mL | < 0.8 µg/mL | 1.5 µg/mL (≈ 4.9 µM) | < 0.8 µg/mL | < 0.8 µg/mL | < 0.8 µg/mL | 13.4 µmol/kg | 4.1 mg/kg
CCC1(CC)CN=C2C(c3ccccc3)=[N+]([O-])c3cccnc3N2C1 [Example 26, 2,3-Dihydro-2,2-diethyl-5-phenyl-1H-pyrimido[1,2-a]pyrido[3,2-e]pyrazine 6-oxide] | 1.5 µg/mL (≈ 4.49 µM) | 1.5 µg/mL (≈ 4.49 µM) | 1.5 µg/mL (≈ 4.49 µM) | < 0.8 µg/mL | < 0.8 µg/mL | < 0.8 µg/mL | < 0.8 µg/mL | 10.1 µmol/kg | 3.4 mg/kg
CCCC1(C)CN=C2C(c3ccccc3)=[N+]([O-])c3cnccc3N2C1 (stereo not drawn) [Example 27, 2,3-Dihydro-2-methyl-5-phenyl-2-propyl-1H-pyrimido[1,2-a]pyrido[3,4-e]pyrazine 6-oxide] | – | < 0.8 µg/mL | < 0.8 µg/mL | 3.1 µg/mL (≈ 9.27 µM) | 1.5 µg/mL (≈ 4.49 µM) | < 0.8 µg/mL | < 0.8 µg/mL | 7.4 µmol/kg | 2.5 mg/kg
COc1ccc(C2=[N+]([O-])c3cnccc3N3CC(C)(C)CN=C23)cc1OC [Example 21] | – | 1.5 µg/mL (≈ 4.09 µM) | 1.5 µg/mL (≈ 4.09 µM) | < 0.8 µg/mL | < 0.8 µg/mL | 1.5 µg/mL (≈ 4.09 µM) | < 0.8 µg/mL | 6.8 µmol/kg | 2.5 mg/kg
CC1(C)CN=C2C(c3ccc(F)cc3)=[N+]([O-])c3cnccc3N2C1 [Example 33, 2,3-Dihydro-2,2-dimethyl-5-(4-fluorophenyl)-1H-pyrimido[1,2-a]pyrido[3,4-e]pyrazine 6-oxide] | – | < 0.8 µg/mL | < 0.8 µg/mL | < 0.8 µg/mL | < 0.8 µg/mL | < 0.8 µg/mL | < 0.8 µg/mL | 2.85 µmol/kg | 0.9 mg/kg
CC1CN=C2C(c3ccccc3)=[N+]([O-])c3cnccc3N2C1 (stereo not drawn) [Example 34, 2,3-Dihydro-2-methyl-5-phenyl-1H-pyrimido[1,2-a]pyrido[3,4-e]pyrazine 6-oxide] | – | < 0.8 µg/mL | < 0.8 µg/mL | < 0.8 µg/mL | < 0.8 µg/mL | < 0.8 µg/mL | < 0.8 µg/mL | 9.3 µmol/kg | 2.7 mg/kg
[O-][N+]1=C(c2ccccc2)C2=NCC3(CCCCC3)CN2c2ccncc21 [Example 30, Spiro[cyclohexane-1,2'-[2,3]-dihydro-[5]-phenyl-[1H]pyrimido[1,2-a]pyrido[3,4-e]pyrazine [6]-oxide]] | 6.2 µg/mL (≈ 17.9 µM) | 1.5 µg/mL (≈ 4.33 µM) | < 0.8 µg/mL | < 0.8 µg/mL | < 0.8 µg/mL | < 0.8 µg/mL | < 0.8 µg/mL | – | –
CCCC1(C)CN=C2C(c3ccccc3)=[N+]([O-])c3cccnc3N2C1 (stereo not drawn) [Example 28, 2,3-Dihydro-2-methyl-5-phenyl-2-propyl-1H-pyrimido[1,2-a]pyrido[3,2-e]pyrazine 6-oxide] | – | < 0.8 µg/mL | < 0.8 µg/mL | 1.5 µg/mL (≈ 4.49 µM) | < 0.8 µg/mL | < 0.8 µg/mL | < 0.8 µg/mL | 7.4 µmol/kg | 2.5 mg/kg
